Experimental data published in patent publication US20170258871A1, “COMBINED USE OF A TRKA INHIBITOR AND AN EPHA2 INHIBITOR FOR USING IN THE TREATMENT OF SOLID CANCERS, AND METHOD FOR THE PROGNOSIS OF SURVIVAL OF A PATIENT WHO HAS A SOLID CANCER” (UNIVERSITE DES SCIENCES ET TECHNOLOGIES DE LILLE, priority 2014, published 2017).

Assays:
[1] = test system: CAL33 cells; assay: In vitro invasion test (Boyden chamber), CAL 33; type: cell-based; details: NGF 16 nM or proNGF N.C. 0.5 nM, untreated cells = 100%
Description: (0.5 nM) for a period of 20 hours. The untreated cells represent the control and determine a base invasion of 100%.
The Boyden Chambers (Transwell®; BD Biosciences; France) were recovered from a biological matrix (type 1 collagen from rats diluted to 400 μg·mL-1 in EMEM-0.1% FCS medium; Millipore). The cells were then seeded with 100,000 cells/well on PET membranes (polyethylene terephtalate; dia.: 10.5 mm; porosity: 8 μm) of Boyden Chambers and held in an EMEM-0.1% FCS medium. […] (0.5 nM) in the lower part. After 20 hours of culture, they were washed twice with PBS 1× and fixed (ice cold methanol; 15 min; −20° C.). The non-invasive cells (upper face of the Transwell®) were eliminated by scraping. The number of cells was estimated after staining with Hoechst 33 258 (1 mM; 30 min; 20° C.) by counting the nuclei thereof using fluorescence microscopy on a total of 5 five randomly chosen fields (lens 10×; λ-excitation: 345 nm; λ-emission: 478 nm; Eclipse Ti) using the ImageJ software. Each experiment was performed in triplicate. Statistical analysis of the results was performed by analysis of variance ANOVA (Bonferroni post-hoc test).

[2] = test system: MDA-MB-231 HA-TrkA tumours; assay: Xenograft of MDA-MB-231 HA-TrkA in SCID mice, tumour volume (Experiment 1); type: in vivo; details: 3 injections every 3 days from day 14; CEP-701 10 mg/kg intraperitoneal, siEphA2 7.5 microg/mouse close to the tumour
Description: FIG. 9: A study of the inhibition of TrkA and EphA2 on tumour development in vivo. The tumours were developed without any intervention for 14 days and then subjected to 3 injections (every 3 days, black arrows) of solvent (control), CEP-701 (10 mg/kg), siEphA2 (7.5 microg/mouse) or CEP-701 (10 mg/kg) and siEphA2 (7.5 microg/mouse). The experiments were stopped 31 days after the first injection of the treatment for ethical considerations after the death of the control mice. A) The tumour volumes were evaluated by measuring the length (;) and the width (w) and then calculating the volume using the formula π/6×l×W×(l+w)/2; the Mann and Whitney test was carried out between the control group and CEP-701 (a), between the control groups and siEphA2 (b), between the control groups and CEP-701+siEphA2 (c), and between the groups siEphA2 and CEP-701+siEphA2 (d)*, P<0.05; **, P<0.01; ns: not significant. B) Study of the inhibition of the expression of receptors by siRNA on the overall survival of SCID mice. […] The tumour volumes were evaluated by measuring the length (l) and width (w) and then calculating the volume using the formula π/6×l×W×(l+w)/2. […] Significance was measured using the log-rank test (P=0.0022). […]
Experiment 1: the mice used were six-week old SCID females. […] The tumour volume was measured according to the following formula: π/6×length×width×(width+length)/2. […]

[3] = test system: MDA-MB-231 HA-TrkA tumours; assay: Xenograft of MDA-MB-231 HA-TrkA in SCID mice, survival (Experiment 2); type: in vivo; details: 5 injections (D14-D26), siRNA 7.5 microg/mouse close to the tumour; control 40 days; log-rank P=0.0022
Description: FIG. 9: A study of the inhibition of TrkA and EphA2 on tumour development in vivo. […] The experiments were stopped 31 days after the first injection of the treatment for ethical considerations after the death of the control mice. A) The tumour volumes were evaluated by measuring the length (;) and the width (w) and then calculating the volume using the formula π/6×l×W×(l+w)/2; the Mann and Whitney test was carried out between the control group and CEP-701 (a), between the control groups and siEphA2 (b), between the control groups and CEP-701+siEphA2 (c), and between the groups siEphA2 and CEP-701+siEphA2 (d)*, P<0.05; **, P<0.01; ns: not significant. B) Study of the inhibition of the expression of receptors by siRNA on the overall survival of SCID mice. The tumours were developed without any intervention for 14 days and were then subjected to 5 injections (D14, DI7, D20, D23, D26) of SiTrkA (7.5 microg/mouse), siEphA2 (7.5 microg/mouse), siTrkA (7.5 microg/mouse) and siEphA2 (7.5 microg/mouse). […] The tumour volumes were evaluated by measuring the length (l) and width (w) and then calculating the volume using the formula π/6×l×W×(l+w)/2. […] Significance was measured using the log-rank test (P=0.0022). […]
Experiment 2: The mice used were six-week old SCID females. […] The tumour volume was measured according to the following formula: π/6×length×width×(width+length)/2. […]

Substance | cell invasion under growth factor [1] | tumour volume / growth of xenografted tumours vs control [2] | median survival [3] [days]
NGF: Nerve Growth Factor; recombinant human β NGF supplied by Scil Proteins | increased cell invasion |  | 
siEphA2: siRNA against EphA2, GCAAGGAAGUGGUACUGCUGGACUU (SEQ ID NO: 1) (listed as RNA, chemistry not given here) |  | strongly reduces the growth of xenografted tumours | 49
